ChEMBL document CHEMBL4396891, “Recent update on anti-dengue drug discovery” (Eur J Med Chem, 2019)
In brackets after ≈: the same amount, converted by molar mass. Each block holds one molecule with its values, some of them ahead of it.

Key:
[1] = system: dengue virus type 1; assay: Antiviral activity against DENV1 infected in African green monkey Vero cells after 30 mins by immunofluorescence assay; type: functional, organism-based; settings: 0.5 h
[2] = system: dengue virus type 2; assay: Antiviral activity against DENV2 infected in African green monkey Vero cells after 30 mins by immunofluorescence assay; type: functional, organism-based; settings: 0.5 h
[3] = system: dengue virus type 3; assay: Antiviral activity against DENV3 infected in African green monkey Vero cells after 30 mins by immunofluorescence assay; type: functional, organism-based; settings: 0.5 h
[4] = system: dengue virus type 4; assay: Antiviral activity against DENV4 infected in African green monkey Vero cells after 30 mins by immunofluorescence assay; type: functional, organism-based; settings: 0.5 h
[5] = system: dengue virus type 2; assay: Antiviral activity against DENV2 infected in BHK-21 cells; type: functional, organism-based
[6] = system: dengue virus type 1; assay: Antiviral activity against DENV1 infected in human HepG2 cells assessed as reduction in viral infection at 20 uM after 24 to 72 hrs by FFU assay relative to control; type: functional; design: scale not given: the % may be the effect or the level left
[7] = system: dengue virus type 2; assay: Antiviral activity against DENV2 infected in human HepG2 cells assessed as reduction in viral infection at 20 uM after 24 to 72 hrs by FFU assay relative to control; type: functional; design: scale not given: the % may be the effect or the level left
[8] = system: dengue virus type 3; assay: Antiviral activity against DENV3 infected in human HepG2 cells assessed as reduction in viral infection at 20 uM after 24 to 72 hrs by FFU assay relative to control; type: functional; design: scale not given: the % may be the effect or the level left
[9] = system: dengue virus type 4; assay: Antiviral activity against DENV4 infected in human HepG2 cells assessed as reduction in viral infection at 20 uM after 24 to 72 hrs by FFU assay relative to control; type: functional; design: scale not given: the % may be the effect or the level left
[10] = system: dengue virus type 2; assay: Antiviral activity against DENV2 infected in […] BHK-15 cells after 48 hrs by luciferase reporter gene assay; type: functional, organism-based; settings: BHK15, 48 h
[11] = system: dengue virus type 2; assay: Antiviral activity against DENV2 ICC265 infected in human Huh7 cells assessed as reduction in viral titer by plaque assay; type: functional, organism-based; settings: ICC265, Huh-7
[12] = system: dengue virus type 2; assay: Antiviral activity against DENV2 infected in monkey LLC-MK2 cells assessed as reduction in plaque formation after 72 hrs by 96-well based plaque titration method; type: functional, organism-based; settings: LLC-MK2, 72 h
[13] = system: dengue virus type 2; assay: Antiviral activity against DENV2 infected in African green monkey Vero cells assessed as reduction in plaque formation after 72 hrs by 96-well based plaque titration method; type: functional, organism-based
[14] = system: dengue virus type 1; assay: Antiviral activity against DENV1 infected in African green monkey Vero cells assessed as virus yield reduction after 48 hrs by plaque assay; type: functional, organism-based
[15] = system: dengue virus type 2; assay: Antiviral activity against DENV2 infected in African green monkey Vero cells assessed as virus yield reduction after 48 hrs by plaque assay; type: functional, organism-based
[16] = system: dengue virus type 3; assay: Antiviral activity against DENV3 infected in African green monkey Vero cells assessed as virus yield reduction after 48 hrs by plaque assay; type: functional, organism-based
[17] = system: dengue virus type 4; assay: Antiviral activity against DENV4 infected in African green monkey Vero cells assessed as virus yield reduction after 48 hrs by plaque assay; type: functional, organism-based
[18] = system: dengue virus type 2; assay: Antiviral activity against DENV2 16681 infected in HEK293 cells after 72 hrs by luciferase reporter gene assay; type: functional, organism-based; settings: Dengue virus, 16681, HEK293, 72 h
[19] = system: dengue virus type 1; assay: Antiviral activity against DENV1 FGA/89 infected in human Huh7.5 cells after 72 hrs by flow cytometric analysis; type: functional, organism-based; settings: FGA/89, Huh7.5, 72 h
[20] = system: dengue virus type 2; assay: Antiviral activity against DENV2 ICC265 infected in human Huh7.5 cells after 72 hrs by flow cytometric analysis; type: functional, organism-based; settings: ICC265, Huh7.5, 72 h
[21] = system: dengue virus type 3; assay: Antiviral activity against DENV3 5532 infected in human Huh7.5 cells after 72 hrs by flow cytometric analysis; type: functional, organism-based; settings: Dengue virus, 5532, Huh7.5, 72 h
[22] = system: dengue virus type 4; assay: Antiviral activity against DENV4 TVP360 infected in human Huh7.5 cells after 72 hrs by flow cytometric analysis; type: functional, organism-based; settings: TVP360, Huh7.5, 72 h
[23] = system: dengue virus type 2; assay: Antiviral activity against DENV2 assessed as reduction in plaque formation; type: functional, organism-based
[24] = system: dengue virus type 1; assay: Antiviral activity against DENV1 after 48 hrs by qRT-PCR analysis; type: functional, organism-based
[25] = system: dengue virus type 2; assay: Antiviral activity against DENV2 after 48 hrs by qRT-PCR analysis; type: functional, organism-based
[26] = system: dengue virus type 3; assay: Antiviral activity against DENV3 after 48 hrs by qRT-PCR analysis; type: functional, organism-based
[27] = system: dengue virus type 4; assay: Antiviral activity against DENV4 after 48 hrs by qRT-PCR analysis; type: functional, organism-based
[28] = system: dengue virus type 2; assay: Antiviral activity against DENV2 infected in human Huh-7 cells; type: functional, organism-based
[29] = system: dengue virus type 2; assay: Antiviral activity against DENV2 16681 infected in human Huh7 cells by luciferase reporter gene assay; type: functional, organism-based; settings: Dengue virus, 16681, Huh-7
[30] = system: dengue virus type 1; assay: Antiviral activity against DENV1 infected in human A549 cells after 3 days by focus reduction assay; type: functional, organism-based; settings: A549, 72 h
[31] = system: dengue virus type 2; assay: Antiviral activity against DENV2 infected in African green monkey Vero cells by focus formation unit reduction assay; type: functional, organism-based
[32] = system: dengue virus type 2; assay: Virucidal activity against DENV2; type: functional, organism-based

EC50 [1]: 30 to 50 µM
EC50 [2]: 30 to 50 µM
EC50 [3]: 30 to 50 µM
EC50 [4]: 30 to 50 µM
Structure (SMILES): C/C(=N\NC(N)=S)[C@H](Cc1c[nH]c2ccccc12)NC(=O)c1ccccc1

Structure (SMILES): O=c1c(O)c(-c2ccc(O)c(O)c2)oc2cc(O)cc(O)c12 [QUERCETIN]
IC50 [5]: 176 µg/mL (≈ 583 µM)

EC50 [10]: 10 µM
Structure (SMILES): COc1c(O)cc2oc3cc(O)c(CC=C(C)C)c(O)c3c(=O)c2c1CC=C(C)C [MANGOSTIN]
Activity [6]: 47 - 55%
Activity [7]: 47 - 55%
Activity [8]: 47 - 55%
Activity [9]: 47 - 55%

Structure (SMILES): COc1cc2c(c(OC)c1OC)-c1c(cc(OC)c(OC)c1OC)C[C@H](C)[C@H](C)C2 [SCHISANDRIN A]
EC50 [11]: 28.1 µM

EC50 [12]: 3.72 µM
EC50 [13]: 12.3 µM
Structure (SMILES): COc1cc2c(c(O)c1C)C(=O)CC(c1ccccc1)O2 (configuration not stated) [STROBOPININ-7-METHYLETHER]

Structure (SMILES): COc1ccc2c3ccnc(C)c3n(C)c2c1
EC50 [14]: 3.2 to 49.5 µM
EC50 [15]: 3.2 to 49.5 µM
EC50 [16]: 3.2 to 49.5 µM
EC50 [17]: 3.2 to 49.5 µM

IC50 [18]: 1.2 µM
Structure (SMILES): CN1CCN(C2Cc3ccc(F)cc3Sc3ccc(O)cc32)CC1 (configuration not stated)

Structure (SMILES): O=C1C[C@@H](c2ccc(O)cc2)Oc2cc(O)cc(O)c21 [NARINGENIN]
EC50 [19]: 35.8 to 178 µM
EC50 [20]: 35.8 to 178 µM
EC50 [21]: 35.8 to 178 µM
EC50 [22]: 35.8 to 178 µM

IC50 [23]: 11.5 µM
Structure (SMILES): COc1cc(/C=C/C(=O)CC(=O)/C=C/c2ccc(O)c(OC)c2)ccc1O [CURCUMIN]

Structure (SMILES): NCC(=O)Nc1ccc(-n2nc(C(F)(F)F)cc2-c2ccc3c(ccc4ccccc43)c2)cc1 [AR-12]
EC50 [24]: 0.6 to 0.8 µM
EC50 [25]: 0.6 to 0.8 µM
EC50 [26]: 0.6 to 0.8 µM
EC50 [27]: 0.6 to 0.8 µM

Structure (SMILES): C/C(=C\[C@H](C)C(=O)C[C@H](O)CC1CC(=O)NC(=O)C1)[C@@H]1OC(=O)/C=C/CC/C=C/C=C\[C@@H]1C [LACTIMIDOMYCIN]
EC50 [28]: 0.4 µM
EC50 [29]: 0.4 µM

Structure (SMILES): CC[C@H]1CN2CCc3c([nH]c4ccccc34)[C@H]2C[C@@H]1/C(=C\OC)C(=O)OC [HIRSUTINE]
EC50 [30]: 1.9 µM

IC50 [31]: 13.5 µg/mL (≈ 30.2 µM)
Structure (SMILES): O=C(O)[C@H]1O[C@@H](Oc2cc3oc(-c4ccccc4)cc(=O)c3c(O)c2O)[C@H](O)[C@@H](O)[C@@H]1O [BAICALIN]
IC50 [32]: 8.74 µg/mL (≈ 19.6 µM)
